Data as given in PubChem BioAssay (NCI).
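Tested at 5 concentrations; 48 h exposure; 96-well plates; endpoints linearly interpolated, else capped at highest concentration. TGI is the concentration that stops growth completely.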

Tests used:
Assay in all cases: NCI anticancer screen, dose series, 48 h
[1] = test system: SF-295 CNS
[2] = test system: MOLT-4 leukemia
[3] = test system: OVCAR-8 ovarian
[4] = test system: DMS 114 small cell lung
[5] = test system: MALME-3M melanoma
[6] = test system: M19-MEL melanoma
[7] = test system: ACHN renal
[8] = test system: SN12C renal
[9] = test system: A549 NSCLC
[10] = test system: SF-539 CNS
[11] = test system: OVCAR-3 ovarian
[12] = test system: EKVX NSCLC
[13] = test system: SNB-19 CNS
[14] = test system: 786-0 renal
[15] = test system: SR leukemia
[16] = test system: HOP-62 NSCLC
[17] = test system: DLD-1 colon
[18] = test system: SK-OV-3 ovarian
[19] = test system: SNB-75 CNS
[20] = test system: IGROV1 ovarian
[21] = test system: RPMI-8226 leukemia
[22] = test system: NCI-H460 lung
[23] = test system: UACC-62 melanoma
[24] = test system: SNB-78 CNS
[25] = test system: NCI-H522 lung
[26] = test system: UACC-257 melanoma
[27] = test system: UO-31 renal
[28] = test system: RXF 393 renal
[29] = test system: HCT-15 colon
[30] = test system: HL-60(TB) leukemia
[31] = test system: M14 melanoma
[32] = test system: SF-268 CNS
[33] = test system: CCRF-CEM leukemia
[34] = test system: SK-MEL-28 melanoma
[35] = test system: HCT-116 colon
[36] = test system: NCI-H23 lung
[37] = test system: HCC-2998 colon
[38] = test system: K-562 leukemia
[39] = test system: LOX IMVI melanoma
[40] = test system: COLO 205 colon
[41] = test system: TK-10 renal
[42] = test system: LXFL 529 NSCLC
[43] = test system: DMS 273 small cell lung
[44] = test system: U251 CNS
[45] = test system: SW-620 colon
[46] = test system: HOP-18 NSCLC
[47] = test system: SK-MEL-2 melanoma
[48] = test system: KM12 colon
[49] = test system: OVCAR-5 ovarian
[50] = test system: HOP-92 NSCLC
[51] = test system: HT29 colon
[52] = test system: OVCAR-4 ovarian
[53] = test system: KM20L2 colon
[54] = test system: SK-MEL-5 melanoma
[55] = test system: NCI-H226 lung
[56] = test system: A498 renal
[57] = test system: CAKI-1 renal
[58] = test system: XF 498 CNS

Measured: TGI

CCCCCCCCCCCCOP(N)(=O)OCCCCCCCCCCCC
not listed: [46] | [47] | [48] | [49] | [50] | [51] | [52] | [53] | [54] | [55] | [56] | [57] | [58]
> 100 µM: all other assays above

Cc1ccc(NC(=O)CC(=O)N2N=C(N(CCC#N)c3cccc(C)c3)CC2c2ccccc2)cc1 (stereo not given)
not listed: [39] | [41] | [56] | [57] | [58]
> 100 µM: all other assays above

COC(OC)c1cc2c(cc1C(=O)[C@@]13CCC[C@@H]1NC(=O)O3)OCO2
not listed: [9] | [15] | [21] | [29] | [37] | [39] | [40] | [42] | [46] | [53]
> 100 µM: all other assays above

COC(=O)/C(=N\NC(N)=S)C(C#N)c1ccccc1 (stereo not given)
not listed: [15] | [43] | [46] | [57]
> 100 µM: all other assays above
